Test results reported in patent US9532975B2, “Use of levo-oxiracetam and oxiracetam in preparation of medicines for preventing or treating coma” (CHONGQING RUNZE PHARMACEUTICAL COMPANY LIMITED., priority 2011, dated 2017).

What was measured:
[1] = tested on: traumatic brain coma in rats; test: Traumatic brain coma in rats (Feeney method), coma level score; assay type: in vivo, SD rats; details: for Remark: animals that survived: 10 animals, 8 h observation, cell wraps: All / survived
[2] = tested on: ketamine-induced coma in mice; test: Ketamine-induced coma in mice, duration of loss of righting reflex; assay type: in vivo, Kunming mice; details: for Time of Sleep (The duration of reflex action, min): ketamine 120 mg/kg i.p. induced coma
Procedure: • 1.1 Experimental animal and grouped 150 Kunming mice, male, weight (25.3±1.9) g, provided by the special committee of Sichuan experimental animal farms. (License: SCXK (Chuan) 2008-14). Animal experiments facilities continue to maintain barriers environmental standards. Control of key environmental indicators: the temperature of 20.0-25.0° C., relative humidity of 40-70%. 10-20 air changes/hour, lighting:dark=14 h:10 h. Animals were housed in standard boxes, each box 5.
Mice after three consecutive supine standing for 5 s can not be restored righting reflex recovery after three consecutive sit-stand for the righting reflex. • 1.4 Statistical analysis of data with x±sd was expressed using statistical software SPSS 12.0 for data analysis. The groups were compared using ANOVA, test level: A=0 05. 2. Results

[3] = tested on: alcoholic coma mouse model; test: Alcohol-induced coma in mice, sleep time (duration of loss of righting reflex); assay type: in vivo; details: for wake-promoting effect on alcoholism-induced coma (in words): doses of Table 8
Procedure: • 1. Drugs and reagents: L-Oxiracetam, D-Oxiracetam and racemic oxiracetam; naloxone, purchased from Chongqing Yaoyou Pharmaceutical Co., Ltd.; anhydrous ethanol, purchased from Shanghai Chemical Reagent Co., Ltd. Physiological saline is commercially available. Each solution was freshly prepared. • 2. Preparation of ethanol solution: anhydrous ethanol was diluted with saline to produce 30% ethanol solution, freshly prepared. • 3. Experimental animals: Male mice weighing 18-22 grams were provided by the special committee, Sichuan experimental animal farms (License: SCXK (Chuan) 2008-14). Animal experiments facilities continue to maintain barriers environmental standards. Control of key environmental indicators: the temperature of 20.0-25.0° C., relative humidity of 40-70%. 10-20 air changes/hour, lighting:dark=14 h:10 h. Animals were housed in standard boxes, each box had 5. (B) Experimental Methods
1. Preparation of alcoholic coma mouse model: With reference to the literature (M. E L Yacoubi, C. Ledent, M. parmentier, et al Caffeine reduces hypnotic effects of alcohol through adenosine A2A receptor blockade [J] Neuropharmacology, 2003, 45(7):977-985) modeled the process of 30% ethanol solution intraperitoneally (0.2 ml/10 g).
2. Method of determination of states of consciousness of mouse discriminating: According to the literature (Jeffrey R. Stephens, Rene H. Levy. Effects of valproate and citrulline on ammonium-Induced encephalopathy [J] Epilepsia, 1994,35 (1):164-171) performed the determination of states of consciousness: level 1, reduced activity in the cage; level 2, limb ataxia associated with reduced activity; level 3, scrolled when placed in the bottom of the back of the cage (righting reflex), but could not stand; level 4, back into the cage end position cannot be corrected, but the damage manifested as physical stimulation retraction; level 5, righting reflex (Loss of Righting Reflex, LORR) and the lack of response to noxious stimuli. Level 4, 5, considered animal in a coma.
The 150 animals were randomly divided into 10 groups: model control group (saline only); […]; dextral Oxiracetam up two groups, respectively: 90,180 mg/kg group; L oxiracetam set up three groups, namely: 30 mg/kg, 90 mg/kg and 180 mg/kg group; naloxone group, a dose of 1.5mg/kg. After each group were successfully prepared animal models, random tables grouped righting reflex one minute after tail vein injection. The mice were observed duration of righting reflex, that sleep time. Statistical results: the experimental data with x±sd, said comparison between the groups were analyzed using ANOVA and q test, test level: α=0.05.

in vivo = test: in vivo; parameters: species or system Beagle dogs; details: dog, 50 mg/kg
Procedure: The study of comparing the pharmacokinetic of the racemic oxiracetam and L-oxiracetam determines the dose orally and intravenously to Beagle dogs for 50 mg/kg.
Take six adult Beagle dogs, the numbers of female and male were equal, which were weighted 10.0±0.5 kg and randomly divided into three groups, and each group were two with same numbers of the male and female. Latin square crossover method was used (see Table 1). Beagle dogs were administered orally and intravenously at a dose of 50 mg/kg. L-oxiracetam samples with 99.3% (optically pure) of purity were used. Each route of administration was performed every week. Animals orally administered were fasted for 12 hours […] continued fasting three hours after administration. Blank blood was taken prior to administration. Blood sample were taken 1 mL from forelimbs vein into heparinized tubes in 0.083, 0.25, 0.5, 0.75, 1.0, 1.5, 2.0, 4.0, 6.0, 8.0, 12.0 and 24.0 hours after oral administration, or taken in 0.083, 0.25, 0.5, 0.75, 1.0, 1.5, 2.0, 4.0, 6.0, 8.0, 12.0 and 24.0 hours after intravenous administration, and centrifuged to obtain plasma. The concentrations of drugs in plasma were determined by LC-MS-MS method. The results in the table below 2-7.

[4] = compared with the racemate; cited from earlier work
[5] = traumatic brain coma, 1 mg/kg, levels 1-6 (5 and 6 = coma)
[6] = alcohol-induced coma, 30 mg/kg tail vein injection
[7] = alcohol-induced coma, 180 mg/kg tail vein injection
[8] = both sexes, Beagle, iv, Drug concentrations in plasma
[9] = traumatic brain coma, 125 mg/kg, levels 1-6 (5 and 6 = coma)

C=CCN1CC[C@]23c4c5ccc(O)c4O[C@H]2C(=O)CC[C@@]3(O)[C@H]1C5 [Naloxone]
wake-promoting effect on traumatic coma (in words) ([1]; 1 mg/kg, positive drug): good wake-promoting effect
Remark: animals that survived ([1]; traumatic brain coma, 1 mg/kg): All
coma level score, post-traumatic observation point 1 h [1, 5]: 4.4 ± 0.96
coma level score, post-traumatic observation point 2 h [1, 5]: 3.6 ± 0.84
coma level score, post-traumatic observation point 8 h [1, 5]: 1.9 ± 0.88
Time of Sleep (The duration of reflex action, min) ([2]; 1.5 mg/kg): 13.5 ± 4.2 min
awaking effect on ketamine-induced coma (in words) ([2]; positive reference drug 1.5 mg/kg): significant effect
Time of Sleep (The duration of reflex action, min) ([3]; alcohol-induced coma, 1.5 mg/kg tail vein injection): 60.5 ± 7.8 min

NC(=O)CN1C[C@H](O)CC1=O [D-Oxiracetam]
awaking effect on ketamine-induced coma (in words) ([2]; dose range 30-180 mg/kg): no effect
Time of Sleep (The duration of reflex action, min) ([2]; 30 mg/kg): 25.6 ± 8.9 min
Time of Sleep (The duration of reflex action, min) ([2]; 180 mg/kg): 22.8 ± 6.5 min
Time of Sleep (The duration of reflex action, min) [3, 6]: 105.3 ± 15.8 min
Time of Sleep (The duration of reflex action, min) [3, 7]: 98.8 ± 11.6 min
wake-promoting effect on alcoholism-induced coma (in words) [3]: basically had no effect

NC(=O)CN1CC(O)CC1=O (racemic) [oxiracetam]
concentration at 1 h (in vivo; [8]): 30800 ng/mL
concentration at 1.5 h (in vivo; [8]): 38800 ng/mL
concentration at 2 h (in vivo; [8]): 35300 ng/mL
concentration at 4 h (in vivo; [8]): 13000 ng/mL
concentration at 6 h (in vivo; [8]): 9350 ng/mL
awaking effect on ketamine-induced coma (in words) ([2]; dose range 150-360 mg/kg): also had such effect
Time of Sleep (The duration of reflex action, min) ([2]; 60 mg/kg): 21.3 ± 6.7 min
Time of Sleep (The duration of reflex action, min) ([2]; 150 mg/kg): 15.3 ± 6.4 min
Time of Sleep (The duration of reflex action, min) ([2]; 360 mg/kg): 14.2 ± 6.2 min
Time of Sleep (The duration of reflex action, min) ([3]; alcohol-induced coma, 60 mg/kg tail vein injection): 96.8 ± 12.7 min
Time of Sleep (The duration of reflex action, min) ([3]; alcohol-induced coma, 150 mg/kg tail vein injection): 86.1 ± 9.4 min
Time of Sleep (The duration of reflex action, min) ([3]; alcohol-induced coma, 360 mg/kg tail vein injection): 65.1 ± 10.2 min
wake-promoting effect on alcoholism-induced coma (in words) [3]: certain awaking effect

NC(=O)CN1C[C@@H](O)CC1=O [L-oxiracetam, (S)-4-hydroxy-2-oxo-pyrrolidineacetamide]
wake-promoting effect on traumatic coma (in words) ([1]; 125 mg/kg, after 1 hour): significant improvement in awareness
Remark: animals that survived ([1]; traumatic brain coma, 125 mg/kg, 125 mg/kg): All
Remark: animals that survived ([1]; traumatic brain coma, 125 mg/kg, listed as left oxiracetam, 125 mg/kg): no occurrence of an animal died
coma level score, post-traumatic observation point 1 h [1, 9]: 5.1 ± 0.88
coma level score, post-traumatic observation point 2 h [1, 9]: 3.8 ± 0.78
coma level score, post-traumatic observation point 4 h [1, 9]: 3.0 ± 0.82
coma level score, post-traumatic observation point 8 h [1, 9]: 2.0 ± 0.67
coma level score, post-traumatic observation point 1 h ([1]; traumatic brain coma, 125 mg/kg, levels 1-6 (5 and 6 = coma), listed as left oxiracetam): 5.1
absolute bioavailability estimated through AUC0−∞ (in vivo): 65.76±9.12%
AUC(0-inf) (in vivo; iv): 243 ± 37.8 µg·h/mL
awaking effect on ketamine-induced coma (in words) ([2]; dose range 30-180 mg/kg): significant awaking effect
Time of Sleep (The duration of reflex action, min) ([2]; 30 mg/kg): 19.6 ± 5.6 min
Time of Sleep (The duration of reflex action, min) ([2]; 75 mg/kg): 15.2 ± 4.9 min
Time of Sleep (The duration of reflex action, min) ([2]; 180 mg/kg): 13.8 ± 3.8 min
effect of awaking relative to racemic oxiracetam ([3]; alcohol-induced coma): ~2 times
Time of Sleep (The duration of reflex action, min) [3, 6]: 85.8 ± 10.6 min
Time of Sleep (The duration of reflex action, min) ([3]; alcohol-induced coma, 75 mg/kg tail vein injection): 63.5 ± 9.8 min
Time of Sleep (The duration of reflex action, min) [3, 7]: 48.5 ± 9.1 min
wake-promoting effect on alcoholism-induced coma (in words) [3]: obvious
solubility (in words) [4]: significantly better than the racemate
